Reference: patent US8592435B2, “Nitrogen-containing six-membered aromatic ring derivatives and pharmaceutical products containing the same” (Daiichi Sankyo Company, Limited, priority 2007, dated 2013)
Counter-ions that a name gives are not always drawn.

Key:
[1] = system: hippocampal neurons; test: Test Example 1: ability to promote axonal outgrowth; assay type: cell-based, Wistar rats; settings: Hippocampal neuron, 216 h, % of control, rat hippocampal neurons, day 9, read-out: Promotion of axonal outgrowth (%); for activity at 3 µM: Compound Conc. = 3 μM; for activity at 0.3 µM: Compound Conc. = 0.3 μM
Protocol: According to the method of M. P. Mattson [M. P. Mattson, Brain Res. Rev., 13, 179, (1988)], the hippocampal region was isolated from 18-day embryos of female Wistar rats and the neurons were dispersed using the papain dissociation system. Hippocampal neuron were suspended in 5% Nu-serum+B27 supplement+Neurobasal medium at 5×10^4 cells/well/2 mL. 2 mL of the cell suspension were inoculated on a poly-D-lysine-coated 36φ dish and the neuron were incubated at 37° C. in a 5% CO2 incubator.
On day 3 of the incubation period, 1 mL of the culture medium was replaced with 1 mL of 5% Nu-serum+B27 supplement+Neurobasal medium containing 2 mM AraC. Each test compound was added to the culture on day 3 and day 7 of the incubation period. On day 9, cells were fixed in a 4% paraformaldehyde solution. The nerve axons of the fixed cells were stained with the Rabbit anti-growth-associated protein-43 polyclonal antibody and the stained cells were quantified using Kurabo neuron outgrowth-quantication software.
The ability (%) of each test compound to promote axonal outgrowth was calculated from the following equation: The ability to promote axonal outgrowth (%)=[(measurement with a compound of interest)/(measurement of control)]×100
Example Compounds shown in Table 25 were used as test compounds and were each added at concentrations of 3 μM and 0.3 μM.
Since bFGF gives a measurement of about 120 in this test, 120 is used as the threshold to determine whether a given compound has the ability to promote axonal outgrowth

[2] = system: mixture of human vascular endothelial cells and fibroblasts; test: Test Example 2: ability to promote angiogenesis (angiogenesis test kit KZ-1000); assay type: cell-based; settings: Homo sapiens, 216 h, lumen length, % of control, day 9, read-out: Promotion of angiogenesis (%); for activity at 3 µM: Compound Conc. = 3 μM; for activity at 0.3 µM: Compound Conc. = 0.3 μM
Protocol: Using an angiogenesis test kit containing a mixture of human vascular endothelial cells and fibroblasts [KZ-1000; Kurabo], the ability of test compounds to promote angiogenesis was evaluated. Each test compound was added on days 1, 4, and 7 of the incubation period. On day 9, cells were immunostained with CD31 and photographed. Control cells were cultured under the same conditions, only without the addition of a test compound, and photographed.
The lumen length of the blood vessel was quantified from the obtained images using an angiogenesis-quantification software. The ability (%) of each test compound to promote angiogenesis was calculated from the following equation: The ability to promote angiogenesis (%)=[(measurement with a compound of interest)/(measurement of control)]×100
Example Compounds shown in Table 26 were used as test compounds.
Since bFGF gives a measurement of about 120 in this test, 120 is used as the threshold to determine whether a given compound has the ability to promote angiogenesis.

| Compound | activity at 3 µM [1] | activity at 0.3 µM [1] | activity at 3 µM [2] | activity at 0.3 µM [2] |
| --- | --- | --- | --- | --- |
| Cc1nc(NCC(=O)N(C)C2CCN(Cc3ccccc3)CC2)nc(C)c1N [Compound 63, 2-(5-amino-4,6-dimethylpyrimidine-2-ylamino)-N-(1-benzylpiperidine-4-yl)-N-methylacetamide] | 186% |  |  |  |
| Cc1nc(OCC(=O)N(C)C2CCN(Cc3ccc(C(N)=O)cc3)CC2)nc(C)c1N [Compound 64, 4-((4-(2-(5-amino-4,6-dimethylpyrimidine-2-yloxy)-N-methylacetamide)piperidine-1-yl)methyl)benzamide] |  | 120% | 177% |  |
| Cc1nc(OCC(=O)N(C)C2CCN(Cc3ccc(C(F)(F)F)cc3)CC2)nc(C)c1N [Compound 69, 2-(5-amino-4,6-dimethylpyrimidine-2-yloxy)-N-methyl-N-(1-(4-(trifluoromethyl)benzyl)piperidine-4-yl)acetamide] |  | 172% |  | 161% |
| Cc1nc(OCC(=O)N(C)C2CCN(Cc3ccc(Cl)cc3)CC2)nc(C)c1N [Compound 72, 2-(5-amino-4,6-dimethylpyrimidine-2-yloxy)-N-(1-(4-chlorobenzyl)piperidine-4-yl)-N-methylacetamide] | 141% |  | 142% |  |
| Cc1nc(OCC(=O)N(C)C2CCN(CC(C)C)CC2)nc(C)c1N [Compound 73, 2-(5-amino-4,6-dimethylpyrimidine-2-yloxy)-N-(1-isobutylpiperidine-4-yl)-N-methylacetamide] | 131% |  | 139% |  |
| Cc1nc(OCC(=O)N(C)C2CCN(CCc3ccccc3)CC2)nc(C)c1N [Compound 75, 2-(5-amino-4,6-dimethylpyrimidine-2-yloxy)-N-methyl-N-(1-phenetylpiperidine-4-yl)acetamide] | 125% |  | 150% |  |
| Cc1nc(OCC(=O)N(C)C2CCN(C(=O)C3CCCCC3)CC2)nc(C)c1N [Compound 76, 2-(5-amino-4,6-dimethylpyrimidine-2-yloxy)-N-(1-(cyclohexanecarbonyl)piperidine-4-yl)-N-methylacetamide hydrochloride] | 123% |  | 149% |  |
| CC(=O)N1CCC(N(C)C(=O)COc2nc(C)c(N)c(C)n2)CC1 [Compound 77, N-(1-acetylpiperidine-4-yl)-2-(5-amino-4,6-dimethylpyrimidine-2-yloxy)-N-methylacetamide hydrochloride] | 135% |  | 149% |  |
| Cc1nc(OCC(=O)N(C)C2CCN(S(=O)(=O)c3ccccc3)CC2)nc(C)c1N [Compound 78, 2-(5-amino-4,6-dimethylpyrimidine-2-yloxy)-N-methyl-N-(1-(phenylsulfonyl)piperidine-4-yl)acetamide] | 130% |  | 144% |  |
| Cc1nc(OCC(=O)N(C)C2CCN(C3CCCCC3)CC2)nc(C)c1N [Compound 79, 2-(5-amino-4,6-dimethylpyrimidine-2-yloxy)-N-(1-cyclohexylpiperidine-4-yl)-N-methylacetamide] | 123% |  | 133% |  |
| Cc1nc(OCC(=O)N(C)C2CCN(C(=O)N3CCCCC3)CC2)nc(C)c1N [Compound 80, 2-(5-amino-4,6-dimethylpyrimidine-2-yloxy)-N-methyl-N-(1-(piperidine-1-carbonyl)piperidine-4-yl)acetamide] | 129% |  |  | 116% |
| Cc1ccccc1CN1CCC(N(C)C(=O)COc2nc(C)c(N)c(C)n2)CC1 [Compound 81, 2-(5-amino-4,6-dimethylpyrimidine-2-yloxy)-N-methyl-N-(1-(2-methylbenzyl)piperidine-4-yl)acetamide] | 115% |  | 126% |  |
| Cc1nc(OCC(=O)N(C)C2CCN(c3ccccc3)CC2)nc(C)c1N [Compound 82, 2-(5-amino-4,6-dimethylpyrimidine-2-yloxy)-N-methyl-N-(1-phenylpiperidine-4-yl)acetamide] | 154% |  | 130% |  |
| COc1cccc(CN2CCC(N(C)C(=O)COc3nc(C)c(N)c(C)n3)CC2)c1 [Compound 88, 2-(5-amino-4,6-dimethylpyrimidine-2-yloxy)-N-(1-(3-methoxybenzyl)piperidine-4-yl)-N-methylacetamide hydrochloride] |  | 142% | 122% |  |
| Cc1nc(OCC(=O)N(C)C2CCN(Cc3ccc(-c4ccccc4)cc3)CC2)nc(C)c1N [Compound 93, 2-(5-amino-4,6-dimethylpyrimidine-2-yloxy)-N-(1-(biphenyl-4-ylmethyl)piperidine-4-yl)-N-methylacetamide hydrochloride] | 143% |  | 138% |  |
| Cc1nc(OCC(=O)N(C)C2CCNCC2)nc(C)c1N [Compound 94, 2-(5-amino-4,6-dimethylpyrimidine-2-yloxy)-N-methyl-N-(piperidine-4-yl)acetamide] | 122% |  |  |  |
| Cc1cc(C)nc(OCC(=O)N(C)C2CCN(Cc3ccccc3)CC2)n1 [Compound 95, N-(1-benzylpiperidine-4-yl)-2-(4,6-dimethylpyrimidine-2-yloxy)-N-methylacetamide hydrochloride] | 201% |  | 133% |  |
| Cc1nc(=O)n(CC(=O)N(C)C2CCN(Cc3ccccc3)CC2)c(C)c1N [Compound 97, 2-(5-amino-4,6-dimethyl-2-oxopyrimidine-1(2H)-yl)-N-(1-benzylpiperidine-4-yl)-N-methylacetamide] | 127% |  | 134% |  |
| Cc1nc(OC(C)C(=O)N(C)C2CCN(CC3CC3)CC2)nc(C)c1N (stereo not shown) [Compound 98, 2-(5-amino-4,6-dimethylpyrimidine-2-yloxy)-N-(1-(cyclopropylmethyl)piperidine-4-yl)-N-methylpropanamide] | 130% |  |  | 129% |
| Cc1nc(OCC(=O)NC2CCN(CC3CC3)CC2)nc(C)c1N [Compound 101, 2-(5-amino-4,6-dimethylpyrimidine-2-yloxy)-N-(1-(cyclopropylmethyl)piperidine-4-yl)acetamide] | 193% |  |  |  |
| CC(C)c1nc(OCC(=O)N(C)C2CCN(Cc3ccccc3)CC2)nc(C(C)C)c1N [Compound 104, 2-(5-amino-4,6-diisopropylpyrimidine-2-yloxy)-N-(1-benzylpiperidine-4-yl)-N-methylacetamide] |  | 134% |  |  |
| Cc1cnc(Cl)nc1OC(C)(C)C(=O)N(C)C1CCN(Cc2ccccc2)CC1 [Compound 112, N-(1-benzylpiperidine-4-yl)-2-(2-chloro-5-methylpyrimidine-4-yloxy)-N,2-dimethylpropanamide maleate] | 126% |  |  |  |
| Cc1nc(N)nc(C)c1OCC(=O)N(C)C1CCN(Cc2ccccc2)CC1 [Compound 113, 2-(2-amino-4,6-dimethylpyrimidine-5-yloxy)-N-(1-benzylpiperidine-4-yl)-N-methylacetamide] | 144% |  |  |  |
| CN(C(=O)COc1cncc(Cl)c1)C1CCN(Cc2ccccc2)CC1 [Compound 125, N-(1-benzylpiperidine-4-yl)-2-(5-chloropyridine-3-yloxy)-N-methylacetamide hydrochloride] |  | 173% |  |  |
| CN(C(=O)COc1cncc(Cl)c1)C1CCN(CC2CC2)CC1 [Compound 126, 2-(5-chloropyridine-3-yloxy)-N-(1-(cyclopropylmethyl)piperidine-4-yl)-N-methylacetamide hydrochloride] | 167% |  |  |  |
| CN(C(=O)COc1cncc(Cl)n1)C1CCN(Cc2ccccc2)CC1 [Compound 129, N-(1-benzylpiperidine-4-yl)-2-(6-chloropyrazine-2-yloxy)-N-methylacetamide hydrochloride] | 147% |  |  |  |
| O=C(COc1ccc(Cl)nn1)N(C1CC1)C1CCN(Cc2ccccc2)CC1 [Compound 138, N-(1-benzylpiperidine-4-yl)-2-(6-chloropyridazine-3-yloxy)-N-cyclopropylacetamide] | 151% |  |  |  |
| CN(C(=O)CNc1c(Cl)cnnc1Cl)C1CCN(Cc2ccccc2)CC1 [Compound 139, N-(1-benzylpiperidine-4-yl)-2-(3,5-dichloropyridazine-4-ylamino)-N-methylacetamide] | 143% |  |  |  |
| COc1cnnc(Cl)c1NCC(=O)N(C)C1CCN(Cc2ccccc2)CC1 [Compound 140, N-(1-benzylpiperidine-4-yl)-2-(3-chloro-5-methoxypyridazine-4-ylamino)-N-methylacetamide] |  | 128% |  |  |
